These results are taken from ChEMBL document CHEMBL1156482, “Molecular mechanism of action of monocyclam versus bicyclam non-peptide antagonists in the CXCR4 chemokine receptor” (J Biol Chem, 2007).

Each structure is given as a SMILES string. The source made the active and inactive calls. The calls are words filed in the database; no cut-off is given here.

The subject of assay [1] is Human immunodeficiency virus 1. Description: Antiviral activity against HIV1 NL43 infected in U87.CD4 cells expressing human CXCR4 D171N mutant. The note with it: Human immunodeficiency virus 1, NL43, U87.CD4. The assay is classed as functional, organism-based.
Assay [2] relates to Human immunodeficiency virus 1. Briefly: Antiviral activity against HIV1 NDK infected in U87.CD4 cells expressing human CXCR4 D262N mutant. The assay is classed as functional, organism-based. The note with it: Human immunodeficiency virus 1, NDK.
Assay [3] has as its system Human immunodeficiency virus 1. Briefly: Antiviral activity against HIV1 NDK infected in U87.CD4 cells expressing human CXCR4 D171N mutant. The format is functional, organism-based. To be noted: Human immunodeficiency virus 1, NDK.
Assay [4] relates to Human immunodeficiency virus 1. Description: Antiviral activity against HIV1 NL43 infected in U87.CD4 cells expressing human CXCR4 H281A mutant. The assay is classed as functional, organism-based. The note with it: Human immunodeficiency virus 1, NL43, U87.CD4.
Assay [5] deals with Human immunodeficiency virus 1. Description: Antiviral activity against HIV1 NL43 infected in U87.CD4 cells expressing human CXCR4 E288A mutant. The assay is classed as functional, organism-based.
Assay [6] has as its system Human immunodeficiency virus 1. Description: Antiviral activity against HIV1 clinical isolate 10 infected U87.CD4 cells expressing human CXCR4 E288A mutant. The assay is classed as functional, organism-based. To be noted: Human immunodeficiency virus 1, U87.CD4.
In assay [7] the test system is C-X-C chemokine receptor type 4 (Homo sapiens), P61073 [H113A]. Description: Displacement of [125I]12G5 antibody from transmembrane domain 3 of human CXCR4 H113A mutant expressed in COS7 cells. The note with it: COS-7. The assay is classed as cell-based.
For assay [8], the system named is Human immunodeficiency virus 1. Briefly: Antiviral activity against HIV1 clinical isolate 10 infected in U87.CD4 cells expressing human CXCR4 D171N mutant. The assay is classed as functional, organism-based. The note with it: Human immunodeficiency virus 1, U87.CD4.
Assay [9] concerns Human immunodeficiency virus 1. Briefly: Antiviral activity against HIV1 clinical isolate 10 infected in U87.CD4 cells expressing human CXCR4 D262N mutant. The format is functional, organism-based. The note with it: Human immunodeficiency virus 1, U87.CD4.
For assay [10], the system named is C-X-C chemokine receptor type 4 (Homo sapiens), P61073 [I259A]. To be noted: COS-7.
The subject of assay [11] is Human immunodeficiency virus 1. Description: Antiviral activity against HIV1 clinical isolate 10 infected in U87.CD4 cells expressing human CXCR4 D171ND262N mutant. The format is functional, organism-based. To be noted: Human immunodeficiency virus 1, U87.CD4.
Assay [12] has as its system Human immunodeficiency virus 1. Briefly: Antiviral activity against HIV1 NL43 infected in U87.CD4 cells expressing human wild type CXCR4. The format is functional, organism-based. The note with it: Human immunodeficiency virus 1, NL43, U87.CD4.
Assay [13] deals with Human immunodeficiency virus 1. Briefly: Antiviral activity against HIV1 clinical isolate 10 infected in U87.CD4 cells expressing human wild type CXCR4. The format is functional, organism-based. The note with it: Human immunodeficiency virus 1, U87.CD4.
The subject of assay [14] is Human immunodeficiency virus 1. Description: Antiviral activity against HIV1 NDK infected in U87.CD4 cells expressing human CXCR4 D171ND262N mutant. The format is functional, organism-based. The note with it: Human immunodeficiency virus 1, NDK.
The test system of assay [15] is Human immunodeficiency virus 1. Description: Antiviral activity against HIV1 clinical isolate 10 infected in U87.CD4 cells expressing human CXCR4 H281A mutant. The note with it: Human immunodeficiency virus 1, U87.CD4. The format is functional, organism-based.
Assay [16] relates to Human immunodeficiency virus 1. Description: Antiviral activity against HIV1 NL43 infected in U87.CD4 cells expressing human CXCR4 D171N/D262N mutant. The format is functional, organism-based.
Assay [17] relates to Human immunodeficiency virus 1. Briefly: Antiviral activity against HIV1 NL43 infected in U87.CD4 cells expressing human CXCR4 D262N mutant. The assay is classed as functional, organism-based. To be noted: Human immunodeficiency virus 1, NL43, U87.CD4.
The test system of assay [18] is Human immunodeficiency virus 1. Briefly: Antiviral activity against HIV1 NDK infected in U87.CD4 cells expressing human CXCR4 H281A mutant. The assay is classed as functional, organism-based. To be noted: Human immunodeficiency virus 1, NDK.
Assay [19] relates to Human immunodeficiency virus 1. Briefly: Antiviral activity against HIV1 NDK infected in U87.CD4 cells expressing human CXCR4 E288A mutant. The format is functional, organism-based. The note with it: Human immunodeficiency virus 1, NDK.
In assay [20] the test system is Human immunodeficiency virus 1. Briefly: Antiviral activity against HIV1 NDK infected in U87.CD4 cells expressing human wild type CXCR4. To be noted: Human immunodeficiency virus 1, NDK. The assay is classed as functional, organism-based.
Assay [21] concerns C-X-C chemokine receptor type 4 (Homo sapiens), P61073 [D171N]. Description: Displacement of [125I]12G5 antibody from transmembrane domain 4 of human CXCR4 D171N mutant expressed in COS7 cells. The format is cell-based. To be noted: COS-7.
For assay [22], the system named is C-X-C chemokine receptor type 4 (Homo sapiens), P61073 [H281A]. Briefly: Antagonist activity at human CXCR4 H281A mutant expressed in U87.CD4 cells assessed as inhibition of CXCL12-induced calcium mobilization. The format is functional, cell-based.
C-X-C chemokine receptor type 4 (Homo sapiens), P61073 [H281A], sequence (P61073 whole entry H281A): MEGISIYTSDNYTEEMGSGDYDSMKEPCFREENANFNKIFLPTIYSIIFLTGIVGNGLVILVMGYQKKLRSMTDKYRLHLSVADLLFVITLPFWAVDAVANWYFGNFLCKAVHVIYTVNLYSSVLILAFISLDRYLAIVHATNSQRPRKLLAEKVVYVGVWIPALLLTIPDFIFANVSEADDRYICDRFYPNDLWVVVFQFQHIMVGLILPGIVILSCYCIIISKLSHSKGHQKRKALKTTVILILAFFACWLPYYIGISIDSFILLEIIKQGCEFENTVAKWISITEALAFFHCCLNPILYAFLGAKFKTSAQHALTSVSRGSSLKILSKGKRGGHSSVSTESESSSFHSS

C-X-C chemokine receptor type 4 (Homo sapiens), P61073 [D171N], sequence (P61073 whole entry D171N, the tested form may be a part): as the sequence (P61073 whole entry H281A) above, with D171N, A281H counted along it
C-X-C chemokine receptor type 4 (Homo sapiens), P61073 [I259A], sequence (P61073 whole entry I259A): as the sequence (P61073 whole entry H281A) above, with I259A, A281H counted along it
C-X-C chemokine receptor type 4 (Homo sapiens), P61073 [H113A], sequence (P61073 whole entry H113A, the tested form may be a part): as the sequence (P61073 whole entry H281A) above, with H113A, A281H counted along it

Take `c1cc(CN2CCCNCCNCCCNCC2)ccc1CN1CCCNCCNCCCNCC1` [PLERIXAFOR]: the 50% inhibitory concentration (IC50) is 0.046 µM in [1]; greater than 3 µM in assay [2]; 0.017 µM in assay [3]; less than 0.0019 µM in assay [4]; greater than 0.121 µM in assay [6]; 0.019 µM in assay [8]. In addition, the IC50 was 2.54 µM in assay [9]; 2.69 µM in assay [11]; 0.014 µM in assay [12]; 0.003 µM in [13]; greater than 3 µM in assay [14]; 0.0024 µM in assay [15]. The IC50 is greater than 0.6 µM in [17], less than 0.0019 µM in assay [18], greater than 6 µM in [19] and 0.0076 µM in assay [20]. Also, the result in assay [5] and in [16] was inactive. The logKi is -5.71 in [7], -5.81 in assay [10] and -4.87 in assay [21]. In [22], the result was Active.
